For two molecules, binary diffusion coefficient results are on record in the NIST ThermoML archive (doi:10.1016/j.jct.2012.02.004).

Structures are written as SMILES.

This series is described as follows: xn = mol fraction of the nth substance listed. The following applies: 298.15 K, 101 kPa, Liquid, Taylor dispersion method.

Turning to `C[N+](C)(C)CCCCCCCCCCCC[N+](C)(C)C.[Br-].[Br-]` + O, the binary diffusion coefficient runs as follows: (x1 = 0) 1.01e-09 m2/s; (x1 = 0.00119) 9.72e-10 m2/s; (x1 = 0.00475) 9.45e-10 m2/s; (x1 = 0.0095) 9.11e-10 m2/s; (x1 = 0.019) 8.7e-10 m2/s; (x1 = 0.038) 8.05e-10 m2/s.

With `C[N+](C)(C)CCCCCCCCCC[N+](C)(C)C.[Br-].[Br-]` [decamethonium bromide] + O, the binary diffusion coefficient is, setting by setting: (x1 = 0) 1.06e-09 m2/s; (x1 = 0.00119) 9.9e-10 m2/s; (x1 = 0.00475) 9.55e-10 m2/s; (x1 = 0.0095) 9.04e-10 m2/s; (x1 = 0.019) 8.61e-10 m2/s; (x1 = 0.038) 8.43e-10 m2/s.
